In the experiment the target is T1, DNA helicase/primase complex protein (Herpes simplex virus (type 1 / strain 17), UniProt P10236).
T1 sequence (P10236 whole entry): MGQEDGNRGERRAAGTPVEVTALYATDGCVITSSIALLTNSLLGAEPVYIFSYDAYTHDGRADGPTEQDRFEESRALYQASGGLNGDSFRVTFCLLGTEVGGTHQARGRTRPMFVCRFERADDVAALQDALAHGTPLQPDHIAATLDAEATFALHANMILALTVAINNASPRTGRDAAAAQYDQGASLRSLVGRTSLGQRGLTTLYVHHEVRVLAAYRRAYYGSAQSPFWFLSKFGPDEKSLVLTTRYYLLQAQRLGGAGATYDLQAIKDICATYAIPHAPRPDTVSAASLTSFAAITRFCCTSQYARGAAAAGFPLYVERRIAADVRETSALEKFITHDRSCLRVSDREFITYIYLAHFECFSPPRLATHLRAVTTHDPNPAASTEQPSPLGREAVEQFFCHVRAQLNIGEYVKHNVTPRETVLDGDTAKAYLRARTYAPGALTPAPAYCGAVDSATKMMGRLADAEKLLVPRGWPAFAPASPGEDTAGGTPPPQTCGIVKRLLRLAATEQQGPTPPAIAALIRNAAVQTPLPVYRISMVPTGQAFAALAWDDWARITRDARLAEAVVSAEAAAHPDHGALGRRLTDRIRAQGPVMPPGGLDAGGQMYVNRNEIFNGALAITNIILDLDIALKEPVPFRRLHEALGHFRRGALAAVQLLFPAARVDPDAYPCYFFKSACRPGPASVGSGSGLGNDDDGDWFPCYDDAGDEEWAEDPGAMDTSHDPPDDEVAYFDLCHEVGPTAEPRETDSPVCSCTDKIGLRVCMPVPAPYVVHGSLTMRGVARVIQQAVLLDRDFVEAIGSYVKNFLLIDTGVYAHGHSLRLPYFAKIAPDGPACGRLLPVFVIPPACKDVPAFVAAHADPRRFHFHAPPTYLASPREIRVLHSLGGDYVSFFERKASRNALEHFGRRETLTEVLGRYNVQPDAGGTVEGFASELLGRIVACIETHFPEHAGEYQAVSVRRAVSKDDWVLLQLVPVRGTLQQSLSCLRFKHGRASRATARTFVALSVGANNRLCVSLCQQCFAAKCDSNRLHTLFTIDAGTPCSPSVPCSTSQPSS
The experiment in a line: Inhibitory concentration against herpes simplex virus helicase primase 8 (HSV).

`O=C(O)CS(=O)(=O)c1ccc(-c2ccccc2)cc1`: the IC50 is more than 80 µM.

What is called IC50 is the concentration at which inhibition is half-maximal. The low end stands for greater potency in that assay, the high end for weaker potency in that assay.

Values taken from ChEMBL document CHEMBL1139458, “Discovery of small-molecule inhibitors of the ATPase activity of human papillomavirus E1 helicase” (J Med Chem, 2004).
